# e = 2'-O-(2-methoxyethyl) (MOE); d = 2'-deoxy (DNA)
# Test system: human growth hormone receptor mRNA
# Test: Inhibition of human growth hormone receptor mRNA levels by antisense oligonucleotides, quantitative real-time PCR, MCF7 cells
# Format: cell-based
# Parameters: concentration or dose not given beside the values
# Conditions: averages from three experiments
# Description: “Target site” indicates the first (5′-most) nucleotide number on the particular target sequence to which the oligonucleotide binds. “% Inhib” indicates the inhibitory effect on hGHR mRNA levels by quantitative real-time PCR. Data are averages from three experiments in which MCF7 cells were treated with the antisense oligonucleotides.
# All oligonucelotides in Table 1 are chimeric oligonucleotides (“gapmers”), 20 nucleotides in length, composed of a central “gap” region consisting of ten 2′-deoxynucleotides, which is flanked on both sides (5′ and 3′ directions) by five-nucleotide “wings”. The wings are composed of 2′-methoxyethyl (2′-MOE) nucleotides. The internucleoside (backbone) linkages are phosphorothioate (P═S) throughout the oligonucleotide. All uracils are 5-methyluracils (^MeU). Typically, the oligonucleotide is synthesized using 2-methoxyethyl modified thymidines not 5-methyluracils. All pyrimidines are C5 methylated (i.e., U, T, C are C5 methylated).
substance,measurement,value
"227453 (antisense CATAATCAGGGCATTCTTTC; sugars from the 5' end e5 d10 e5, all phosphorothioate, methylation of C not given here) [compound 227453]",% INHIB (inhibitory effect on hGHR mRNA levels),52%
"227464 (antisense CCTTTAATCTTTGGAACTGG; sugars from the 5' end e5 d10 e5, all phosphorothioate, methylation of C not given here) [compound 227464]",% INHIB (inhibitory effect on hGHR mRNA levels),58%
"227468 (antisense TCATCAATATCTAGCTCAAT; sugars from the 5' end e5 d10 e5, all phosphorothioate, methylation of C not given here) [compound 227468]",% INHIB (inhibitory effect on hGHR mRNA levels),62%
"227469 (antisense CTTAGAAGTCTGTCTGTGTC; sugars from the 5' end e5 d10 e5, all phosphorothioate, methylation of C not given here) [compound 227469]",% INHIB (inhibitory effect on hGHR mRNA levels),63%
"227475 (antisense CCTGCTGGTGTAATGTCGCT; sugars from the 5' end e5 d10 e5, all phosphorothioate, methylation of C not given here) [compound 227475]",% INHIB (inhibitory effect on hGHR mRNA levels),68%
"227480 (antisense ATGTAAATGTCCTCTTGGTT; sugars from the 5' end e5 d10 e5, all phosphorothioate, methylation of C not given here) [compound 227480]",% INHIB (inhibitory effect on hGHR mRNA levels),66%
"227481 (antisense TGGTGATGTAAATGTCCTCT; sugars from the 5' end e5 d10 e5, all phosphorothioate, methylation of C not given here) [compound 227481]",% INHIB (inhibitory effect on hGHR mRNA levels),45%
"227482 (antisense TTCTGTGGTGATGTAAATGT; sugars from the 5' end e5 d10 e5, all phosphorothioate, methylation of C not given here) [compound 227482]",% INHIB (inhibitory effect on hGHR mRNA levels),53%
"227483 (antisense AGGCTTTCTGTGGTGATGTA; sugars from the 5' end e5 d10 e5, all phosphorothioate, methylation of C not given here) [compound 227483]",% INHIB (inhibitory effect on hGHR mRNA levels),75%
"227484 (antisense TGGTAAGGCTTTCTGTGGTG; sugars from the 5' end e5 d10 e5, all phosphorothioate, methylation of C not given here) [compound 227484]",% INHIB (inhibitory effect on hGHR mRNA levels),63%
"227488 (antisense AGTTGGTCTGTGCTCACATA; sugars from the 5' end e5 d10 e5, all phosphorothioate, methylation of C not given here) [compound 227488]",% INHIB (inhibitory effect on hGHR mRNA levels),86%
"227489 (antisense TGTTCAGTTGGTCTGTGCTC; sugars from the 5' end e5 d10 e5, all phosphorothioate, methylation of C not given here) [compound 227489]",% INHIB (inhibitory effect on hGHR mRNA levels),75%
"227490 (antisense GCATGATTTTGTTCAGTTGG; sugars from the 5' end e5 d10 e5, all phosphorothioate, methylation of C not given here) [compound 227490]",% INHIB (inhibitory effect on hGHR mRNA levels),67%
"227499 (antisense TATAAAAGGGCTTTGTAAAA; sugars from the 5' end e5 d10 e5, all phosphorothioate, methylation of C not given here) [compound 227499]",% INHIB (inhibitory effect on hGHR mRNA levels),14%
"227500 (antisense CATAGCAGCAAAGTAGCAGA; sugars from the 5' end e5 d10 e5, all phosphorothioate, methylation of C not given here) [compound 227500]",% INHIB (inhibitory effect on hGHR mRNA levels),69%
"227501 (antisense GCTATTTTTGGCTATAGAAA; sugars from the 5' end e5 d10 e5, all phosphorothioate, methylation of C not given here) [compound 227501]",% INHIB (inhibitory effect on hGHR mRNA levels),64%
"227502 (antisense GATTGAGGTATTTAGCTATT; sugars from the 5' end e5 d10 e5, all phosphorothioate, methylation of C not given here) [compound 227502]",% INHIB (inhibitory effect on hGHR mRNA levels),56%
"272302 (antisense GATCCATACCTGTAGGACCT; sugars from the 5' end e5 d10 e5, all phosphorothioate, methylation of C not given here) [compound 272302]",% INHIB (inhibitory effect on hGHR mRNA levels),60%
"272303 (antisense CCAGAGATCCATACCTGTAG; sugars from the 5' end e5 d10 e5, all phosphorothioate, methylation of C not given here) [compound 272303]",% INHIB (inhibitory effect on hGHR mRNA levels),55%
"272304 (antisense TGCTAAGGATAGCTGCTGTG; sugars from the 5' end e5 d10 e5, all phosphorothioate, methylation of C not given here) [compound 272304]",% INHIB (inhibitory effect on hGHR mRNA levels),48%
"272305 (antisense TTGTCTTTAGGCCTGGATTA; sugars from the 5' end e5 d10 e5, all phosphorothioate, methylation of C not given here) [compound 272305]",% INHIB (inhibitory effect on hGHR mRNA levels),68%
"272306 (antisense TTAGAAGAATTTGTCTTTAG; sugars from the 5' end e5 d10 e5, all phosphorothioate, methylation of C not given here) [compound 272306]",% INHIB (inhibitory effect on hGHR mRNA levels),13%
"272307 (antisense GTGAATTTAGGCTCCTTAGA; sugars from the 5' end e5 d10 e5, all phosphorothioate, methylation of C not given here) [compound 272307]",% INHIB (inhibitory effect on hGHR mRNA levels),55%
"272308 (antisense GCTGTATGGGTCCTAGGTTC; sugars from the 5' end e5 d10 e5, all phosphorothioate, methylation of C not given here) [compound 272308]",% INHIB (inhibitory effect on hGHR mRNA levels),57%
"272309 (antisense TAACAGCTGTTTTCCCCAGC; sugars from the 5' end e5 d10 e5, all phosphorothioate, methylation of C not given here) [compound 272309]",% INHIB (inhibitory effect on hGHR mRNA levels),85%
"272310 (antisense TTTCATCCACTGTACCACCA; sugars from the 5' end e5 d10 e5, all phosphorothioate, methylation of C not given here) [compound 272310]",% INHIB (inhibitory effect on hGHR mRNA levels),76%
"272311 (antisense TTGCACTATTTCATCAACAG; sugars from the 5' end e5 d10 e5, all phosphorothioate, methylation of C not given here) [compound 272311]",% INHIB (inhibitory effect on hGHR mRNA levels),47%
"272312 (antisense GGGTGGATCTGGTTGCACTA; sugars from the 5' end e5 d10 e5, all phosphorothioate, methylation of C not given here) [compound 272312]",% INHIB (inhibitory effect on hGHR mRNA levels),57%
"272313 (antisense ATTGCGTGGTGCTTCCCATC; sugars from the 5' end e5 d10 e5, all phosphorothioate, methylation of C not given here) [compound 272313]",% INHIB (inhibitory effect on hGHR mRNA levels),77%
"272314 (antisense TAGGGTCCATCATTTTCCAT; sugars from the 5' end e5 d10 e5, all phosphorothioate, methylation of C not given here) [compound 272314]",% INHIB (inhibitory effect on hGHR mRNA levels),56%
"272315 (antisense CAATGAGTACACTGGAACTG; sugars from the 5' end e5 d10 e5, all phosphorothioate, methylation of C not given here) [compound 272315]",% INHIB (inhibitory effect on hGHR mRNA levels),53%
"272316 (antisense AACTCGCCATAATTTCCAGA; sugars from the 5' end e5 d10 e5, all phosphorothioate, methylation of C not given here) [compound 272316]",% INHIB (inhibitory effect on hGHR mRNA levels),64%
"272317 (antisense AGCCCAAATATTCCAAAGAT; sugars from the 5' end e5 d10 e5, all phosphorothioate, methylation of C not given here) [compound 272317]",% INHIB (inhibitory effect on hGHR mRNA levels),65%
"272318 (antisense TCAGCATTTTAATCCTTTGC; sugars from the 5' end e5 d10 e5, all phosphorothioate, methylation of C not given here) [compound 272318]",% INHIB (inhibitory effect on hGHR mRNA levels),55%
"272319 (antisense ATTTTCCTTCCTTGAGGAGA; sugars from the 5' end e5 d10 e5, all phosphorothioate, methylation of C not given here) [compound 272319]",% INHIB (inhibitory effect on hGHR mRNA levels),67%
"272320 (antisense AGATTGTGTTCACCTCCTCT; sugars from the 5' end e5 d10 e5, all phosphorothioate, methylation of C not given here) [compound 272320]",% INHIB (inhibitory effect on hGHR mRNA levels),70%
